PubChem BioAssay AID602296 (Broad Institute, 2012)
Records with an inconclusive call do not appear. The source made the active and inactive calls.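 The calls were made as follows: active = fitted activation curve crossing 40% at a concentration no higher than the sample's top valid tested dose; inconclusive = flat fitted curve at 30% to 70% activation, or poor curve fit; inactive = signal decrease, flat curve within 30%, or the rest.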

These compounds were tested on NIH3T3-HGL HSF-1 response element luciferase, 48 h (assay: HSF-1 reporter activators over prolonged exposure, confirmation, cell-based, mouse, luciferase, cherry-pick, dose (AID 602296);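 also: test compounds applied by themselves with no MG132 co-treatment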).
CCN(CC)C(=O)Oc1ccc(Br)cc1C(=O)Nc1ccc(F)cc1F was tested, and the AC40 was > 26 µM (inactive). In the case of Cc1[nH]nc2c1C(c1cc(Br)cs1)C(C#N)=C(N)O2 (configuration not stated), the AC40 is reported as 12 µM. With O=c1[nH]c(N2CCN(c3ccccc3)CC2)nc2c1CCC2 the AC40 was > 26 µM (inactive). O=c1[nH][nH]c(-c2ccccc2O)c1C(C[N+](=O)[O-])c1ccccc1 (configuration not stated) gave an AC40 of 16.9 µM. Cn1ccc(C(=O)N/N=C/c2ccncc2)n1 gave an AC40 of 14.3 µM. In the case of CCCCOc1ccc(C(=O)N/N=C/c2cn[nH]c2-c2ccc(OC)c(OC)c2)cc1, the AC40 is reported as > 26 µM (inactive). With COc1ccc(C(=O)CC(=O)C(=O)Nc2cc(OC)c(OC)c(OC)c2)cc1 the AC40 was > 26 µM (inactive). In the case of CN(/C(=N\S(=O)(=O)c1ccccc1)c1ccccc1)c1ccc(O)cc1, the AC40 is reported as > 26 µM (inactive). CC(CC#CCN1CCOCC1)OCCC#N (configuration not stated) was tested, and the AC40 was > 26 µM (inactive). For Cc1ccc2nc(NCc3ccccc3)c(C=O)c(=O)n2c1, the AC40 was 11 µM. With CCCC(=O)Nc1cc(-c2nn(C)c(=O)c3ccccc23)ccc1OC the AC40 was > 26 µM (inactive). With COC(=O)C1(O)CC(CC(C)C)=NN1C(=O)c1ccccc1 (configuration not stated) the AC40 was 20.3 µM. COc1ccc(/C=C\c2nc(=O)c3ccccc3o2)cc1 was tested, and the AC40 was > 26 µM (inactive). With CCOc1cc(C(=S)N2CCOCC2)ccc1OS(=O)(=O)c1ccc(C)cc1 the AC40 was > 26 µM (inactive). With COCCCNc1nc2nonc2nc1N1CCN(Cc2cccc(C)c2)CC1 the AC40 was > 26 µM (inactive). N#Cc1ccccc1COC(=O)c1cc(=O)c2ccccc2o1 gave an AC40 of 26 µM. COc1cccc(C2C(C(N)=O)=C(C)Nc3nc(-c4cccc(Cl)c4)nn32)c1 (configuration not stated) was tested, and the AC40 was > 26 µM (inactive). With COc1cccc(N=Nc2c(O)[nH]c(=S)[nH]c2=O)c1 the AC40 was 10.1 µM. With C/C(Cl)=C/Cc1c(C)[nH]c2ccc(C)cc2c1=O the AC40 was 11.2 µM. For COc1ccc(/C=C(\NC(=O)c2ccccc2)C(=O)N/N=C/c2sccc2C)cc1, the AC40 was > 26 µM (inactive). With S=c1[nH]nc(-c2ccccc2)n1/N=C/c1ccc(-c2ccccc2Cl)o1 the AC40 was > 12 µM (inactive). COc1ccc(N=C2NC(=O)/C(=C\C=C\c3ccco3)S2)cc1 gave an AC40 of 12.1 µM. In the case of COC(=O)c1cc(OC)c(OC)cc1NC(=S)NC(=O)c1ccco1, the AC40 is reported as > 26 µM (inactive). Work on COC(=O)[C@@H](Cc1c[nH]c2ccccc12)NC(=O)c1ccc2c(c1)OCO2 yielded an AC40 of 3.28 µM. For Cc1ccc(C(=O)Cn2nc(C(=O)O)c3ccccc3c2=O)cc1C, the AC40 was > 26 µM (inactive). In the case of CCOC(=O)c1cc(C#N)c(SCc2ccc(C#N)cc2)nc1C, the AC40 is reported as > 26 µM (inactive). For CC(C)OC(=O)c1ccc(COc2ccc3ccc(=O)oc3c2)o1, the AC40 was 3.16 µM. For Cc1ccc(-n2c(SCC(=O)Nc3cc(S(=O)(=O)N4CCOCC4)ccc3Cl)nc3ccccc3c2=O)cc1, the AC40 was 16 µM. O=C(CN1c2ccccc2S(=O)(=O)c2ccccc21)NCc1ccc(F)cc1 was tested, and the AC40 was > 26 µM (inactive). For Cc1ccc(C(=O)NC(=C(Cl)Cl)S(=O)(=O)c2ccc(Cl)cc2)cc1, the AC40 was 8.29 µM. For Cc1cccc(N2CCN(C(=O)CSCc3c(C)noc3C)CC2)c1C, the AC40 was 20.1 µM. For Cc1ccccc1OCCCC(=O)Nc1ccccc1C(F)(F)F, the AC40 was > 26 µM (inactive). With C/C(CC(=O)Nc1cccc2c1CCCC2)=N\NC(=O)COc1ccccc1 the AC40 was > 26 µM (inactive). O=C(/C=C/Sc1ccccc1)c1ccc(Cl)cc1 was tested, and the AC40 was 4.33 µM. In the case of Cc1[nH]n(-c2ccccc2)c(=O)c1C=NCCc1ccccc1, the AC40 is reported as 9.52 µM. C=CCn1c(O)c(C(CC)=Nc2ccc3c(c2)CCC3)c(=O)[nH]c1=O was tested, and the AC40 was > 12 µM (inactive). For CC(C)(CN)CC(=O)O, the AC40 was > 26 µM (inactive). O=[N+]([O-])c1cc([N+](=O)[O-])c(Oc2c(F)cccc2F)cc1NN1CCCCC1 was tested, and the AC40 was > 26 µM (inactive). For O=C(CSc1nnc(-c2cccs2)o1)N1CCCc2ccccc21, the AC40 was > 26 µM (inactive). In the case of O=C(O)C1CCCCC1C(=O)Nc1ccc2c(c1)CCC2 (configuration not stated), the AC40 is reported as 5.08 µM. In the case of CN(C)c1nc(N)nc(CSc2nnnn2-c2ccc(F)cc2)n1, the AC40 is reported as > 26 µM (inactive). Work on CN(CCC1CCCCO1)C(=O)CCc1nnc(CCCCc2ccccc2)o1 (configuration not stated) yielded an AC40 of 5.66 µM. CC1CC(C)(C)N(C(=O)NC2CCCCC2)c2ccccc21 (configuration not stated) showed an AC40 of 12.9 µM. With Cc1cc(/C=C(/C#N)c2cccc(Cl)c2)c(C)n1C the AC40 was > 26 µM (inactive). For CC1(c2ccc([N+](=O)[O-])cc2)NC(=O)N(CC(=O)c2ccc3c(c2)OCO3)C1=O (configuration not stated), the AC40 was > 26 µM (inactive). For O=C1Nc2ccccc2/C1=C/c1cnc[nH]1, the AC40 was > 26 µM (inactive). In the case of O=c1[nH]n(CC2COC3(CCCCC3)O2)c(=O)c2ccccc12 (configuration not stated), the AC40 is reported as 5.22 µM. For COc1cccc(N=CC2=C(O)CC(C)(C)CC2=O)c1, the AC40 was > 26 µM (inactive). In the case of Cc1ccc(-c2nc3ncccn3c2Nc2ccccc2C)o1, the AC40 is reported as > 26 µM (inactive). O=C(c1ccccc1Br)N1CCN(c2ccccc2)CC1 was tested, and the AC40 was > 26 µM (inactive). In the case of c1ccc2c(Nc3nnc(-c4ccncc4)s3)cccc2c1, the AC40 is reported as 1.24 µM. For Cc1cccc(CN(C(=S)Nc2c(C)cccc2C)c2cccnc2)c1, the AC40 was 24.7 µM. In the case of COc1cc(/C=C(/C#N)C(=O)c2c(C)[nH]c3ccccc23)ccc1OCC#N, the AC40 is reported as > 26 µM (inactive). COCCCNCCOc1ccc(C)cc1[N+](=O)[O-] was tested, and the AC40 was > 26 µM (inactive). COc1cccc(-c2nnc(SCc3nc4ccccc4[nH]3)n2N)c1 was tested, and the AC40 was 18.6 µM. Work on CCn1c(SCC(=O)c2ccc(Cl)cc2)nnc1-c1ccoc1C yielded an AC40 of 11.1 µM. C/C(Cn1cnc([N+](=O)[O-])n1)=N\NC(=O)c1ccccc1F showed an AC40 of 2.7 µM. For Cc1sc2nc(C)n(/N=C/c3ccc(O)cc3O)c(=O)c2c1C, the AC40 was > 26 µM (inactive). For COC(=O)[C@@H]1C[C@]2(OC(=O)c3ccccc3)C=CC(=O)C[C@@H]2N1C(=O)OCc1ccccc1, the AC40 was 12.4 µM. With Oc1ccc(NC(=S)Nc2ccccc2)cc1 the AC40 was > 26 µM (inactive). For CCOP(=O)(C(NC(=O)c1ccccc1Cl)=C(Cl)Cl)c1ccccc1 (configuration not stated), the AC40 was > 26 µM (inactive). With O=C(NC(CO)(CO)CO)c1coc(=O)c(Br)c1 the AC40 was > 26 µM (inactive). For CCC1(c2ccccc2)NC(=O)N(CC(=O)NCc2ccccc2OC)C1=O (configuration not stated), the AC40 was > 26 µM (inactive). With COC(=O)c1ccc(N(CC(=O)NC2CCCCC2)C(=O)CNC(=O)c2ccco2)cc1 the AC40 was > 26 µM (inactive). With CCOC(=O)C(=O)/C(C#N)=C/Nc1ccccc1 the AC40 was > 26 µM (inactive). With C(=N\N1CCN(Cc2cccc3ccccc23)CC1)/c1cccnc1 the AC40 was > 26 µM (inactive). With Nc1c(-c2ccsc2)cnc2ncnn12 the AC40 was > 26 µM (inactive). In the case of COCCCNC(=O)CCn1c(=O)c2ccccc2n(CC(=O)Nc2cc(Cl)ccc2C)c1=O, the AC40 is reported as > 26 µM (inactive). For Cc1ccc(CNc2c(C=O)c(=O)[nH]c3ccccc23)cc1, the AC40 was > 26 µM (inactive). For CNc1nc(-c2ccccc2)cc(C)c1S(C)(=O)=O, the AC40 was > 26 µM (inactive). For Cc1ccccc1CC1(CO)CCCN(C(=O)c2ccccc2Cl)C1 (configuration not stated), the AC40 was > 26 µM (inactive). For Cc1ccc(NC(=O)c2cc3c(=O)oc4ccccc4c3s2)nc1, the AC40 was > 26 µM (inactive). [O-]/[N+](=C\c1ccc(OC(F)F)cc1)c1ccccc1 was tested, and the AC40 was > 26 µM (inactive). CC(=NCc1ccco1)C1=C(O)c2ccccc2C1=O gave an AC40 of 16.6 µM. For C[C@@H]1C(NC(=O)c2ccccc2)CC2CC1C2(C)C (some centres not stated), the AC40 was > 26 µM (inactive). For c1ccc(CCc2ccncc2)cc1, the AC40 was > 26 µM (inactive). COc1ccc(CCNc2oc(-c3ccccc3OC)nc2C#N)cc1 was tested, and the AC40 was > 26 µM (inactive). For C#CC[N+]1(CC#Cc2ccccc2)CCCCC1, the AC40 was > 26 µM (inactive). CC1(C)Cc2c(C#N)c(N)n(-c3ccccc3)c(=S)c2CO1 was tested, and the AC40 was > 26 µM (inactive). O=C(C1CCC(CNS(=O)(=O)c2cccc3nsnc23)CC1)N1CCN(c2ccccn2)CC1 (configuration not stated) was tested, and the AC40 was > 26 µM (inactive). In the case of CCOc1cccc(/C=C/c2ccc3cccc(O)c3n2)c1OC, the AC40 is reported as > 26 µM (inactive). In the case of CSc1ccc(Cl)c(C(=O)OCC(=O)N(C)CCC#N)c1, the AC40 is reported as > 26 µM (inactive). Cc1ccnc(N2CCCC(C(=O)Nc3ccc(C)c(C)c3)C2)n1 (configuration not stated) was tested, and the AC40 was > 26 µM (inactive). For O=C(O)c1csc(N/N=C/c2ccc(Br)cc2)n1, the AC40 was > 26 µM (inactive). For O=C(Nc1ccccc1C(=O)OCC(=O)c1c[nH]c2ccccc12)c1ccco1, the AC40 was > 26 µM (inactive). CCOc1cc(/C=C2/SC(=S)N(CC3CCCO3)C2=O)ccc1O (configuration not stated) was tested, and the AC40 was > 26 µM (inactive). COc1ccc(OC)c(-n2c(=O)c3ccccc3c3ccccc3c2=O)c1 was tested, and the AC40 was 12.4 µM. CCCN(CC(=O)Nc1ccc(Cl)cc1Cl)C(=O)/C=C/c1ccco1 was tested, and the AC40 was 13 µM. With N#C/C(=C(\O)C(F)(F)F)c1nnc2n1CCCCC2 the AC40 was > 26 µM (inactive). For CCc1ccc(CN2C(=O)c3ccccc3C2C(=O)NCC2CCCO2)cc1 (configuration not stated), the AC40 was > 26 µM (inactive). O=c1/c(=C/c2ccccc2)sc2nnc(-c3cccs3)n12 was tested, and the AC40 was > 26 µM (inactive). With CC1=C(Sc2nc3ccccc3[nH]2)C(=O)NC(C)(C)C1 the AC40 was > 26 µM (inactive). In the case of Cn1c2ccc(F)cc2c2ncn(CCN3CCOCC3)c(=O)c21, the AC40 is reported as > 26 µM (inactive). COc1ccc(C)cc1Cn1c(S(C)(=O)=O)nc2ccccc21 was tested, and the AC40 was > 26 µM (inactive). Cc1ccc2nc(SCC(=O)NCc3ccc(F)cc3)[nH]c2c1 was tested, and the AC40 was > 26 µM (inactive). Work on CCCNC(=O)NC(=O)CSc1cccc(C(F)(F)F)c1 yielded an AC40 of 13.5 µM. CCN(CC(=O)Nc1ccc(NC(C)=O)cc1)Cc1c(O)ccc2cc(Br)ccc12 was tested, and the AC40 was 25.2 µM. For O=C(CN1C(=O)/C(=C\c2cccc(Cl)c2)Sc2ccccc21)NCCCN1CCOCC1, the AC40 was > 12 µM (inactive). With CCOC(=O)c1c(-c2ccc(C)cc2)cn2ccccc12 the AC40 was > 26 µM (inactive). CCOC(=O)C1CCCN(C(=O)c2sc3nc(C)nc(N(CC)CC)c3c2C)C1 (configuration not stated) was tested, and the AC40 was > 26 µM (inactive). With S=C(NC1CCCCC1)NC1CC2C=CC1C2 (configuration not stated) the AC40 was > 26 µM (inactive). In the case of CCN(CC)C(=O)c1ccc(C)c(Br)c1, the AC40 is reported as > 26 µM (inactive). For Nc1ccc(Sc2cnn(-c3ccccc3)c(=O)c2Cl)cc1, the AC40 was 8.39 µM. For COc1cc2c(cc1OC)C(CCc1ccccc1)=NCC2, the AC40 was > 26 µM (inactive). COC(=O)C(C)Sc1ncnc2c1nnn2-c1ccc(F)cc1 (configuration not stated) was tested, and the AC40 was 5.57 µM. For c1ccc(SCCOCCN2CCOCC2)cc1, the AC40 was > 26 µM (inactive). With CCC(C)n1c(SCC(=O)NC(=O)Nc2ccc3c(c2)OCCO3)nc2ccccc2c1=O (configuration not stated) the AC40 was > 26 µM (inactive).
